In US9834575B2, “Cancer therapy” (TriAct Therapeutics, Inc., priority 2013, dated 2017):
Values after ≈ are worked out from the molar mass of the structure shown. Like-named read-outs stand apart in the source and are kept apart here.

What was measured:
[1] = tested on: A549 cells; assay: Cell number (CyQuant) after culture in 10% serum from mice orally administered 300 mg/Kg drug, A549; assay type: cell-based, human; conditions: A549, 72 h
Method: (§1) The plates were incubated for 72 h at 37° C. and the relative cell number per well was determined using the CyQuant® reagent. Fluorescence was measured using a Molecular Devices plate reader. […] Serum from five animals was pooled, mixed with culture medium at a concentration of 10% and cells incubated for 72 hours. Cell number was then determined using the CyQuant® assay. […] Differences in cell number for cells cultured in 10% serum was compared by t-test. P values are: A427, p=0.009; A549, p=0.133; and […], p=0.744.

[2] = tested on: H1975, A427, A549 cells; assay: Cell survival/proliferation (CyQuant) of NSCLC cell lines in 10% serum from untreated mice spiked with drug; assay type: cell-based, human; conditions: 72 h
Method: The CyQuant™ assay (Invitrogen) may be used to differentiate antioxidant activity from anti-proliferative activity. Briefly, the assay is based on dye fluorescence enhancement upon binding to cellular nucleic acids. Cells are lysed by addition of a buffer containing the CyQUANT™-GR dye; there are no washing steps, growth medium changes or long incubations. The resulting fluorescence is proportional to the number of cells in the sample and is measured directly using the TD-700 fluorometer equipped with a fluorescein filter kit. The CyQUANT™ assay can detect much lower cell numbers than Neutral Red or methylene blue assays. […] Thus, cells can be frozen prior to assaying; time course assays are facile and data obtained from samples taken at widely different time intervals can be directly compared. […] Cell number differences were measured using the CyQuant® assay (Invitrogen). H1975, A427, A549 cells were seeded at 1×10^4 cells/well in a 96 well plate and incubated overnight at 37° C. […] The plates were incubated for 72 h at 37° C. and the relative cell number per well was determined using the CyQuant® reagent. Fluorescence was measured using a Molecular Devices plate reader.

[3] = tested on: A427 cells; assay: Cell number (CyQuant) after culture in 10% serum from mice orally administered 300 mg/Kg drug, A427; assay type: cell-based, human; conditions: A427, 72 h
Method: as §1

[4] = In vitro stability of NDGA in freshly drawn whole blood of CD-1 mice; assay type: in vitro ADME; conditions: CD-1 mouse whole blood
Method: The aliquots were treated with MeCN (1:3 ratio) containing a mixture of internal standards (metoprolol, propranolol, and warfarin, each at 500 ng/mL) for protein precipitation. After centrifugation, supernatants were analyzed directly using LC-HRAMS as described below.

[5] = Exposure (plasma concentration by LC-MS/MS) of NDGA after oral administration in male CD-1 mice at 100 mg/kg; assay type: in vivo; conditions: for concentration at 0.167 h / concentration at 0.5 h / concentration at 2 h / concentration at 4 h: male, CD-1, mouse, plasma, po, 100 mg/kg, PO 100 mg/kg; for concentration at 0.167 h: time point 0.167 hr; for concentration at 0.5 h: time point 0.50 hr; for concentration at 2 h: time point 2.0 hr; for concentration at 4 h: time point 4.0 hr
Method: Test compound was dosed at 100 mg/kg from 0.5% MC and 0.5% NaCMC in DI water in separate groups. Analytical stock solutions (1 mg/mL of the free drug) were prepared in DMSO. Standards were made from independently prepared stock solutions of the test compound. Standards and QCs were prepared in male CD-1 mouse plasma containing K2EDTA as an anticoagulant with 10% of 0.1M ascorbic acid in water. Standards were prepared at concentrations of 1000, 500, 100, 50, 10, 5, 1, and 0.5 ng/mL by serial dilution. Standards were treated identically to the study samples. Plasma samples were manually extracted using acetonitrile precipitation. All samples were thawed on ice, and kept on ice during preparation. […] [table] • Flow Rate: 300 μL/min • Injection Volume: 10 μL • Run Time: 4.5 min • Temperature: ambient • Autosampler Wash: #1: 1:1:1 (v:v:v) water:acetonitrile:isopropanol with 0.2% formic acid • #2: 50:50 (v:v) methanol:water [table] […] All data are expressed as ng/mL of the free drug. Samples that were below the limit of quantitation were not used in the calculation of averages. Plasma concentrations versus time data are plotted in FIGS. 24 and 25.

[6] = Solubility of NDGA in intestinal fluids; assay type: physicochemical; conditions: fassgf or other biorelevant
[7] = Metabolite profiling of NDGA in plasma after oral administration in male CD-1 mice (LC-HRAMS, semi-quantitative); assay type: in vivo
Method: The dosing solution was prepared at a nominal concentration of 20 mg/mL; detailed description is shown in Appendix I. The actual concentration, established using HPLC-MS, was 84.9% of nominal (+/−8.9%) and was within the acceptable range according to the study protocol. Animal dosing and blood collection were performed according to the study protocol; details are shown in Appendix II. […] Plasma samples were prepared from blood according to the study protocol. Aliquots of the stabilized (with ascorbic acid) plasma samples were treated with MeCN (1:3 ratio) containing a mixture of internal standards (metoprolol, propranolol, and warfarin, each at 500 ng/mL) for protein precipitation. After centrifugation, clear supernatants were analyzed directly using LC-High Resolution Accurate Mass Spectrometry (HRAMS) as described below.
The samples were separated using HPLC, and two stationary phases were evaluated: ACE pentaflurophenyl C18 (Phenomenex) and dC18 (Waters). […]
Following the pre-scan, the FT analyzer is set to perform a slow survey scan at high resolution (HRMS). […] The decision event selects the two most intense ions detected in the pre-scan which are on the parent mass list. […]
1) Subtraction of the chromatogram of a control sample (solvent control in blank matrix) from the analyzed sample, leading to creation of a “SUB” file (Appendix II). […]

[8] = 0.5% MC in DI water, group average
[9] = 0.5% MC in DI water, group average, read-out: Average plasma concentration
[10] = 0.5% NaCMC in DI water, group average
[11] = 0.5% NaCMC in DI water, group average, read-out: Average plasma concentration

## CC(Cc1ccc(O)c(O)c1)C(C)Cc1ccc(O)c(O)c1 (stereo not shown) [NDGA, nordihydroguaiaretic acid]
[1]
  Number of cells after culture in 10% serum from treated mice (in words): not significant at the 0.05 level
[2]; 10% mouse serum spiked with drug
  Concentration above which reduced cell proliferation was observed: > 10 µM
[2]; maximum concentration tested, 10% mouse serum, all cell lines averaged
  Cell number reduced: 33%
[3]
  Number of cells after culture in 10% serum from treated mice (in words): decrease was statistically significant
[4]; time 0 minutes
  Stability of NDGA in whole blood: 100
[4]; time 15 minutes
  Stability of NDGA in whole blood: 7.2
[4]; up to 60 minutes
  Putative metabolites detected upon incubation in whole blood in vitro: No putative metabolites were detected
[4]; possibly impacted by poor recovery
  Stability in whole blood sample (in words): appears to be unstable
[5]; 100 mg/kg PO, one mouse (#187) died ~5 min after 30 min sample, possibly stress
  Observations and adverse reactions: No other adverse effects were observed
[5]; [8]
  concentration at 0.167 h: 43.4 ng/mL
  concentration at 2 h: 3.08 ng/mL
[5]; [9]
  concentration at 0.5 h: 44.2 ng/mL
  concentration at 4 h: 3.19 ng/mL
[5]; [10]
  concentration at 0.167 h: 70.8 ng/mL
  concentration at 2 h: 1.83 ng/mL
[5]; [11]
  concentration at 0.5 h: 49.6 ng/mL
  concentration at 4 h: 2.75 ng/mL
[5]; 0.5% NaCMC in DI water, individual mice #183-187, read-out: Individual plasma concentration Conc.
  concentration at 0.5 h: 40.9 ng/mL
[5]; 0.5% NaCMC in DI water, individual mice #183-186, read-out: Individual plasma concentration Conc.
  concentration at 4 h: 3.24 ng/mL
[6]
  solubility: ~8 µg/mL (≈ 26.5 µM)
[7]; male CD-1 mice, 300 mg/kg PO, 0.5% NaCMC in water
  Adverse effects in the dosed animals: No adverse effects were observed
[7]; mouse plasma, 300 mg/kg PO NDGA, trapezoidal approximation, 5-240 min
  AUC: 28.5 peak area ratio* min
